Source: patent US20250127778A1, “CANCER IMMUNOTHERAPY COMPOSITION CONTAINING INTERACTION INHIBITOR OF STING AND TRIM29 AS ACTIVE INGREDIENT” (SPARK BIOPHARMA, INC, priority 2021, published 2025)

How the values were obtained:
[1] = target: T1, TRIM29 (Mus musculus, UniProt Q8R2Q0); experiment: ITDRF in Raw264.7 cells, TRIM29; type: binding; conditions: FIG. 14
T1 construct: endogenous in cells; host or cells: Raw264.7
T1 sequence (Q8R2Q0 1-587): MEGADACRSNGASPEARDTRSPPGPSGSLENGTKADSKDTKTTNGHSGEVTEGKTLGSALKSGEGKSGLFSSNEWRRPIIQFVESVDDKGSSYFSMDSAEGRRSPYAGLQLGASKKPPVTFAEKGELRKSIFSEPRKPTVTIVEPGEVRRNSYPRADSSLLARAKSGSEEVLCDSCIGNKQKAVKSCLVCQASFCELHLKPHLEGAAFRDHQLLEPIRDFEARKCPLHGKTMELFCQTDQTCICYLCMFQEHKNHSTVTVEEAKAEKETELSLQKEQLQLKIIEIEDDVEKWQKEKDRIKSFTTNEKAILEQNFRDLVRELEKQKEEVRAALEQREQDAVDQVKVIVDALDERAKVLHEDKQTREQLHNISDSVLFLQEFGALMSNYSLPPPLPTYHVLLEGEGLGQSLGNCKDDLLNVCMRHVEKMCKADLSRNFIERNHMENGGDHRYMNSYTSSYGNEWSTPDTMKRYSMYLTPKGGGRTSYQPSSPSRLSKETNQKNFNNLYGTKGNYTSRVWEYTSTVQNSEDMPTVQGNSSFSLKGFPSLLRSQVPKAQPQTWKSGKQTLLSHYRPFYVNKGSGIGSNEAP
From the text: It was verified whether the oxopiperazine derivative of the present invention was bound to STING among STING and TRIM29 to inhibit interaction thereof, based on the compound of Formula 1, by the cellular thermal shift assay (CETSA) and the isothermal dose response fingerprint (ITDRF) which were major technologies for verifying the interaction between small molecule compounds and target proteins. (D. M. Molinaetal., Science 2013, 341, 84-87.)
To verify the target of the compound of Formula 1 using the CETSA technique, the human A431 cell lines and mouse Raw264.7 cell lines were seeded on a 100-mm or 150-mm culture dish and cultured for one day. […] Afterwards, centrifugation was performed at 20000 g for 20 minutes at 4° C., the supernatant was transferred to a new container, and each concentration was measured by using the Micro BCA™ protein assay kit (ThermoFisher) according to the protocol of the manufacturer. The concentration of each sample was equally adjusted by using the RIPA lysis buffer, the 5× SDS-PAGE loading buffer (Biosesang) was added according to the ratio of the manufacturer, and the resultant was treated at 95° C. for 5 minutes and analyzed by using the Western blotting method described above.

[2] = tested on: bone-marrow derived dendritic cells (BMDC) and OT-1 T cells; experiment: BMDC antigen presentation to OT-1 T cells with OVA antigen; type: cell-based, mouse; conditions: OVA antigen directly treated, FIG. 18
Description: It was confirmed that the compound of Formula 1 increased the antigen presentation efficacy of bone-marrow derived dendritic cells (BMDC) of a STING agonist to cytotoxic T cells (CD8^+ T cells).
Specifically, mouse bone marrow-derived cells were obtained from the femur and tibia of 8-week-old female C57BL/6 mice. 2×10^6 of cells were cultured in 2 mL of a MLR medium (RPMI 1640 medium supplemented with 10% FBS, 1% 1M HEPES, 1% glutamine, and 1% antibiotic-antimycotic) supplemented with 10 ng/ml mGM-CSF and 5 ng/ml IL-4 to be differentiated into dendritic cells (BMDC). On the third day from the start of cell culturing, 2 mL of the MLR medium was added. Additionally, on the sixth day, 2×10^6 dendritic cells were treated with 50 μg/mL OVA protein and/or 100 ng/ml lipopolysaccharide (LPS), and cGAMP and/or the compound represented by Formula 1 at various concentrations. Thereafter, the cells were cultured at 37° C. in a 5% CO2 incubator for 24 hours, and then flow cytometry of dendritic cell activation markers (CD80, CD86, MHC II) was performed. Subsequently, 5×10^4 dendritic cells were incubated with 2×10^5 CFSE-labeled OT-1 T cells (OVA-specific CD8^+ T cells) to observe OT-1 T cell proliferation.

[3] = tested on: tumor-infiltrating leukocytes (TILs); experiment: Flow cytometry of tumor-infiltrating immune cells; type: in vivo, mouse; conditions: combination with cGAMP, FIG. 26
Description: The tumors were extracted after the mice were euthanized with carbon dioxide. The tumor tissues were divided into small pieces with a razor blade, treated with the DMEM solution including 2% horse serum, 0.5 mg/ml of collagenase D, and 40 μg/mL of DNase I for one hour at 37° C., and permeated through a 40-μm filter, thereby being separated into individual cells. Tumor-infiltrating leukocytes (TILs) were separated from the separated cells by percoll concentration-gradient centrifugation, and red blood cells were removed by treatment with red blood cell lysis solution. The obtained cells were redistributed in the FACS solution described above, and FcγRII/III receptors of individual immune cells were neutralized by treatment with the anti-mouse CD16/CD32 Abs (clone 2.4G2) antibody at 4° C. for 10 minutes. The treatment with primary antibodies for individual cell differentiation were performed at 4° C. for 30 minutes. The treated cells were redistributed into a PBS solution after centrifugation and then further centrifuged to remove the supernatant. The cells were fixed by the treatment with 4% paraformaldehyde (PFA) solution at room temperature for 10 minutes, treated with Triton solution (PBS solution including 0.1% BSA and 0.5% Triton-X-100), and centrifuged, and then the supernatant was removed. Cytokine (IFNγ(XMG1.2)-APC, Perforin(S16009A)-PE, granzyme B(QA16A02)-FITC, Biolegend) primary antibodies were treated at room temperature for two hours. Finally, the Triton solution was added, centrifugation was performed, the supernatant was removed, the cells were redistributed into 200 μL of the Triton solution and analyzed by using a FACSCalibur device from BD Bioscience, and the results were quantitatively analyzed by using the FlowJo program from Tree Star, Inc.

[4] = tested on: tumor; experiment: Combination with PD-1 antibody immune checkpoint therapeutic agent in tumor model; type: in vivo, mouse; conditions: intratumoral, combination with intravenous PD-1 antibody compared to PD-1 antibody alone; FIG. 32
From the text: It was confirmed whether the efficacy can be increased in case of treating in combination with existing immune checkpoint therapeutic agents from the efficacy of constructing the systemic anticancer immune system of the compound of Formula 1.

## COc1ccc(CC2=CN(c3ccc(C(=O)NC[C@H]4CCCO4)cc3[N+](=O)[O-])[C@H](C(C)C)C(=O)N2Cc2ccc(O)cc2)cc1 [Formula 1, 4-((R)-4-(4-hydroxybenzyl)-2-isopropyl-5-(4-methoxybenzyl)-3-oxo-3,4-dihydropyrazin-1 (2H)-yl)-3-nitro-N-(((R)-tetrahydrofuran-2-yl)methyl)benzamide]
[1]
  ITDRF effect on TRIM29: without affecting TRIM29
[2]
  OT-1 T cell proliferation (BMDC activation by cGAMP and antigen presentation efficacy): promoted cell proliferation in a concentration-dependent manner
[3]; ratio of CD45+ cells
  infiltration of total T cells and cytotoxic T cells into the tumor: increased
[3]
  activity of infiltrated cytotoxic T cells (TNF-α, granzyme B, Perforin): increased
  total ratio of myeloid-derived suppressor cells (MDSC): decreased
[4]
  final tumor weight: decreased in a concentration-dependent manner
  tumor growth: decreased in a concentration-dependent manner
